Patent US11535599B2, “Benzisoxazole derivative” (Sumitomo Pharma Co., Ltd., priority 2020, dated 2022)

Tests used:
[1] = Differential scanning calorimetry (DSC); type: physicochemical
Method: Differential scanning calorimetry: the thermal characteristic was evaluated with a differential scanning calorimetry (DSC) instrument (DSCQ1000, TA Instruments, New Castle, Del., USA). For each trial, about 1-10 mg of the solid sample was put in a standard aluminium pot aerated with a pinhole, and heated at a rate of 5-10° C./min under a nitrogen purge of 50 mL/min. The data analysis was carried out with Universal Analysis 2000 Version 4.1D (TA Instruments, New Castle, Del., USA).

[2] = Thermogravimetric analysis (TGA); type: physicochemical; conditions: until melting temperature
Method: Thermogravimetric analysis: the thermogravimetric analysis (TGA) was carried out with a TGA instrument (TGA Q500, TA Instruments, New Castle, Del., USA). For each trial, about 1-10 mg of the solid sample was put in an open aluminium pot, and heated at a rate of 5-10° C./min under a nitrogen purge of 60 mL/min. The data analysis was carried out with Universal Analysis 2000 Version 4.1D (TA Instruments, New Castle, Del., USA).

[3] = Dynamic vapor adsorption (DVS), hygroscopicity; type: physicochemical; conditions: 0-90% RH, 25° C.
Method: Dynamic vapor adsorption: the hygroscopicity was evaluated with a dynamic vapor adsorption (DVS) instrument (IGAsorp, Hiden Isochema, Warrington, England) at room temperature. The water adsorption/desorption was studied as a function of relative humidity (RH) in the range of 0-90% at 25° C. The relative humidity in the chamber was made to increase by 10% RH, and the humidity was retained until the humidity state of the atmosphere and the weight variation of solid achieved equilibrium. The equilibration test was continued until the test was passed or failed 5 or 10 hours later. At this time point, RH increased by 10%, and the absorption process was repeated until the RH achieved to 90% RH and the humidity state achieved equilibrium. During the test, the moisture sorption was being monitored. For the desorption, the relative humidity was decreased in a similar manner to measure a perfect adsorption/desorption cycle. The cycle was repeated as appropriate. All the experiments were operated in dm/dt mode (weight variation over time) to determine each equilibrating endpoint. About 5-10 mg of the solid was used. The date analyses were carried out with Hisorp v4.02 (Hiden Isochema, Warrington, England).

[4] = Shaking suspensions of crystalline forms in solvents (form conversion); type: physicochemical; conditions: shaking forms I-III in several kinds of solvents for 9-11 days
Method: Crystalline Example 13 of form III can be prepared by shaking a suspension of Example 13 in an organic solvent (e.g. ethanol, chloroform, acetonitrile, tetrahydrofuran, ethyl acetate, acetone, and tetrahydrofuran/heptane mixture (1:1)) at about 50° C. for 9-11 days. Or, it can be prepared by shaking a suspension of Example 13 in an organic solvent (e.g. acetonitrile, ethyl acetate, acetone, acetone/water mixture (1:1), and tetrahydrofuran/heptane mixture (1:1)) at about 25° C. for 9-11 days. Or, it can be prepared by shaking a suspension of a mixture of forms I and II of Example 13 in an organic solvent (e.g. ethanol, 2-propanol, chloroform, acetonitrile, tetrahydrofuran, ethyl acetate, acetone, and tetrahydrofuran/heptane mixture (1:1)) at about 50° C. for 9-11 days. Or, it can be prepared by shaking a suspension of a mixture of forms I and II of Example 13 in an organic solvent (e.g. 2-propanol, chloroform, acetonitrile, tetrahydrofuran, ethyl acetate, acetone, methanol/water mixture (1:1), 2-propanol/water mixture (1:1), acetone/water mixture (1:1), and tetrahydrofuran/heptane mixture (1:1)) at about 25° C. for 9-11 days. Or, it can be prepared by heating a solution of Example 13 in tert-butyl methyl ether at about 80° C. for about one hour, and leaving the solution to stand at room temperature for a day. […]

[5] = tested on: oxaliplatin chemotherapy-induced peripheral neuropathy model; experiment: Anti-allodynia effect in chemotherapy-induced peripheral neuropathy model (acetone test); type: in vivo, rat; conditions: Example 13 100 mg/kg oral once a day 17 times; duloxetine 30 mg/kg oral single
Excerpt: As one of chemotherapy-induced peripheral neuropathy, sensory disturbance due to neuropathy caused by a platinating agent that is an anticancer agent such as cisplatin and oxaliplatin is known, and the symptom is difficult to be recovered even after the medication is discontinued. The therapeutic effect for sensory disturbance caused by repetitive administration of oxaliplatin was studied in the present test.
To male Crl: CD (SD) rats (7 weeks old) (CHARLES RIVER LABORATORIES JAPAN, INC.), oxaliplatin (5 mg/kg) was intraperitoneally administered for the two consecutive days in a week, totally 6 times, to prepare chemotherapy-induced peripheral neuropathy models. The compound of Example 13 (100 mg/kg) was repeatedly orally administered once a day, totally 17 times. […] In the acetone test, 0.1 mL of acetone was sprayed to the foot sole of the rat hind paw, and the reaction was evaluated according a scoring (Cold Score). When there was no reaction for 20 seconds after spraying acetone, Score 0 was recorded and the observation was stopped. When there was any reaction for the 20 seconds, the observation was continued until 40 seconds after spraying, and the score was recorded according to the evaluation scale. The acetone spray was done twice each for right and left hind paws, and the total score was calculated. […]

## C[C@H](c1noc2ccccc12)S(N)(=O)=O [Example 13 form I, (1R)-1-(1,2-benzoxazol-3-yl)ethane-1-sulfonamide]
[1]
  crystalline stability (DSC): high
[2]
  weight reduction in TGA: no weight reduction
[3]
  weight variation in DVS: ≤ 1%

## C[C@H](c1noc2ccccc12)S(N)(=O)=O [Example 13 form III, (1R)-1-(1,2-benzoxazol-3-yl)ethane-1-sulfonamide]
[4]
  relative stability of crystalline forms: most stable form

## CNCC[C@H](Oc1cccc2ccccc12)c1cccs1 [duloxetine, reference compound]
[5]
  Cold Score in acetone test: significantly lower Cold Score
